Measured values as given in publication PMC12846815, “Structural basis for iterative methylation by a cobalamin-dependent radical S-adenosylmethionine enzyme in cystobactamids biosynthesis” (Proceedings of the National Academy of Sciences of the …, 2026).

Assays:
ccCysS [1] = target: T1, ccCysS (Corallococcus sp. CA054B, UniProt A0A3A8HCN5, F485L); assay: LC-MS product quantification; type: biochemical; conditions: 500 µM SAM, 2 mM Ti(III) citrate, pH 7.5, room temperature
T1 construct: gene D7V80_23740; codon-optimised gene in pSUMO, N-terminal SUMO tag cleaved with Ulp1; E. coli BL21(DE3) with pDB1282 and pBAD42-BtuCEDFB; monomer; TLS groups span residues 5 to 704
T1 sequence (A0A3A8HCN5 1-645 F485L): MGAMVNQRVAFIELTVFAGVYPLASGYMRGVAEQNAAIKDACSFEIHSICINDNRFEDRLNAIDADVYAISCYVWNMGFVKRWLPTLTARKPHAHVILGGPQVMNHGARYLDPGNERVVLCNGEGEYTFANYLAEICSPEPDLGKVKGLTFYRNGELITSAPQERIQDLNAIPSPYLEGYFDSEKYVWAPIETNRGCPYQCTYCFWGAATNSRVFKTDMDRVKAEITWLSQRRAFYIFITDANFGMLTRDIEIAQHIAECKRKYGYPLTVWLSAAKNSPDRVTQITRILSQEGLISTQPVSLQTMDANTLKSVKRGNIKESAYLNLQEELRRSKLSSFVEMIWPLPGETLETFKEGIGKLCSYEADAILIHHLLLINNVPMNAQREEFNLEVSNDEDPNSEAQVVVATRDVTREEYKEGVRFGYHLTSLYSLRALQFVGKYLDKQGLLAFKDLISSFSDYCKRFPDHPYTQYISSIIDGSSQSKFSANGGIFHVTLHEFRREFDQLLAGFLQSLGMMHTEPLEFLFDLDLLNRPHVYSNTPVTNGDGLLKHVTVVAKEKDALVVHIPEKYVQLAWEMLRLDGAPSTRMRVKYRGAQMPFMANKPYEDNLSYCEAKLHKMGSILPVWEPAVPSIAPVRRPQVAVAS

ccCysS [2] = target: T2, ccCysS (Corallococcus sp. CA054B, UniProt A0A3A8HCN5); assay: LC-MS product quantification; type: biochemical; conditions: 500 µM SAM, 2 mM Ti(III) citrate, pH 7.5, room temperature
T2 construct: gene D7V80_23740; codon-optimised gene in pSUMO, N-terminal SUMO tag cleaved with Ulp1; E. coli BL21(DE3) with pDB1282 and pBAD42-BtuCEDFB; monomer; TLS groups span residues 5 to 704
T2 sequence (A0A3A8HCN5 1-645): T1 sequence (A0A3A8HCN5 1-645 F485L)

ccCysS [3] = target: T3, ccCysS (Corallococcus sp. CA054B, UniProt A0A3A8HCN5, F485Y); assay: LC-MS product quantification; type: biochemical; conditions: 500 µM SAM, 2 mM Ti(III) citrate, pH 7.5, room temperature
T3 construct: gene D7V80_23740; codon-optimised gene in pSUMO, N-terminal SUMO tag cleaved with Ulp1; E. coli BL21(DE3) with pDB1282 and pBAD42-BtuCEDFB; monomer; TLS groups span residues 5 to 704
T3 sequence (A0A3A8HCN5 1-645 F485Y): T1 sequence (A0A3A8HCN5 1-645 F485L)

cbCysS = target: T4, cbCysS (Cystobacter sp. Cbv34, UniProt A0A0H4NV78); assay: LC-MS product quantification; type: biochemical; conditions: 500 µM SAM, 2 mM Ti(III) citrate, pH 7.5, room temperature
T4 construct: gene cysS; codon-optimised gene in pSUMO, N-terminal SUMO tag cleaved with Ulp1; E. coli BL21(DE3) with pDB1282 and pBAD42-BtuCEDFB; monomer
T4 sequence (A0A0H4NV78 1-642): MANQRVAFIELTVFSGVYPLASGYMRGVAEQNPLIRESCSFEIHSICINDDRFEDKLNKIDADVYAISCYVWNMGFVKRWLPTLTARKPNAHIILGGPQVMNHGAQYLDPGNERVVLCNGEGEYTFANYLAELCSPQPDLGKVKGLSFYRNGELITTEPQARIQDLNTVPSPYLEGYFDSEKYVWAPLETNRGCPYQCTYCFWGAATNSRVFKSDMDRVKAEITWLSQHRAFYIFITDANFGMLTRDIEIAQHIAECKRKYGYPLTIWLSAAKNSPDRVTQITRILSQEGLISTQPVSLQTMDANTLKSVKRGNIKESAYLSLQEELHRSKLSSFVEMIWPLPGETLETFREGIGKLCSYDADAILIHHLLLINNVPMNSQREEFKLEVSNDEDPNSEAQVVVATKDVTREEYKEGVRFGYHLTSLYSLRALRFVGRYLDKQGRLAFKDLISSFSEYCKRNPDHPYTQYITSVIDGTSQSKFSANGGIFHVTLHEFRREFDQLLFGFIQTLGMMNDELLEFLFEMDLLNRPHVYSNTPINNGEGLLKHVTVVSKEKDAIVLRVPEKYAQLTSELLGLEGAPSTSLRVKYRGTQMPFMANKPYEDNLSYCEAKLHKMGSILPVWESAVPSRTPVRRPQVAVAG

ccCysS [4] = target: T5, ccCysS (Corallococcus sp. CA054B, UniProt A0A3A8HCN5, F485W); assay: LC-MS product quantification; type: biochemical; conditions: 500 µM SAM, 2 mM Ti(III) citrate, pH 7.5, room temperature
T5 construct: gene D7V80_23740; codon-optimised gene in pSUMO, N-terminal SUMO tag cleaved with Ulp1; E. coli BL21(DE3) with pDB1282 and pBAD42-BtuCEDFB; monomer; TLS groups span residues 5 to 704
T5 sequence (A0A3A8HCN5 1-645 F485W): T1 sequence (A0A3A8HCN5 1-645 F485L)

ccCysS [5] = target: T2, ccCysS; assay: X-ray crystal structure, […] Å; type: binding; conditions: active site, one conformer; with Met, 5′dA, Cbl and [Fe4S4]; anoxic, pH 6.0
ccCysS [6] = target: T6, ccCysS (Corallococcus sp. CA054B, UniProt A0A3A8HCN5, W271A); assay: LC-MS product quantification; type: biochemical; conditions: 500 µM SAM, 2 mM Ti(III) citrate, pH 7.5, room temperature
T6 construct: gene D7V80_23740; codon-optimised gene in pSUMO, N-terminal SUMO tag cleaved with Ulp1; E. coli BL21(DE3) with pDB1282 and pBAD42-BtuCEDFB; monomer; TLS groups span residues 5 to 704
T6 sequence (A0A3A8HCN5 1-645 W271A): T1 sequence (A0A3A8HCN5 1-645 F485L)

ccCysS [7] = target: T2, ccCysS; assay: X-ray crystal structure, […] Å; type: binding; conditions: active site, two conformers; with Met, 5′dA, Cbl and [Fe4S4]; anoxic, pH 6.0

SMILES: CC(C)Oc1cc(C(=O)OCCNC(=O)CCNC(=O)[C@H](O)C(C)(C)CO)ccc1N [OiPr, O^iPr substrate]
- LC-MS product quantification (ccCysS [1]): The F485L variant, less bulky than wild-type (WT) ccCysS, produces methylated products in roughly equal amounts
- LC-MS product quantification (ccCysS [2]): The O^sBu and O^tBu products are observed only when starting from the O^iPr substrate
- LC-MS product quantification (ccCysS [3]): F485Y and F485W yield fewer overall methylated products
- LC-MS product quantification (cbCysS): The O^sBu and O^tBu products are observed only when starting from the O^iPr substrate
- LC-MS product quantification (ccCysS [4]): F485Y and F485W yield fewer overall methylated products

SMILES: CCOc1cc(C(=O)OCCNC(=O)CCNC(=O)[C@H](O)C(C)(C)CO)ccc1N [OEt, OEt substrate]
- X-ray crystal structure, 2.00 Å (ccCysS [5]): Structures with the OMe or OEt substrates have well-defined substrate electron densities

SMILES: COc1cc(C(=O)OCCNC(=O)CCNC(=O)[C@H](O)C(C)(C)CO)ccc1N [OMe, OMe substrate]
- LC-MS product quantification (ccCysS [6]): changed to Ala, the variant shows much lower activity across all three methylations
- X-ray crystal structure, 1.75 Å (ccCysS [7]): Structures with the OMe or OEt substrates have well-defined substrate electron densities
- LC-MS product quantification (cbCysS): In reactions using the OMe substrate, only the OEt and O^iPr products are detected
